Assay results from patent publication US9822373B2, “Mutant cells for protein secretion and lignocellulose degradation” (The Regents of the University of California, priority 2011, dated 2017).

Columns and labels:
Type in all cases: cell-based, Neurospora crassa
[1] = tested on: cellulase genes (cbh-1, gh5-1, gh6-2); assay: Quantitative RT-PCR, cellulase gene expression stated for the genes together
Method: Conidia from strains were inoculated at an OD595 equal to 0.05 in 50 ml Vogel's salts (45) with 2% w/v sucrose in a 250 ml Erlenmeyer flask and grown under constant light at 200 rpm for 16 hours. Biomass was then spun at 4200 rpm for 10 minutes and washed in Vogel's salts twice to remove any excess sucrose. […] Cultures were induced for 4 hrs under constant light at 200 rpm. The culture biomass was then harvested by filtration over a Whatman glass microfiber filter (GF/F) on a Buchner funnel and washed with 50 ml Vogel's salts. The biomass was flash frozen in liquid nitrogen and stored at −80° C. Three independent biological duplicates (flasks) were evaluated for each time point.
(§1) Total RNA from frozen samples was isolated using Zirconia/Silica beads (0.5 mm diameter; Biospec) and a Mini-Beadbeater-96 (Biospec) with 1 mL TRIzol reagent (Invitrogen) according to the manufacturer's instructions. The total RNA was further purified by digestion with TURBO DNA-free (Ambion) and an RNeasy kit (Qiagen). RNA concentration and integrity was checked by Nanodrop and agarose gel electrophoresis.
Quantitative RT-PCR was performed using the EXPRESS One-Step SYBR GreenER Kit (Invitrogen) and the StepOnePlus Real-Time PCR System (Applied Biosystems). Reactions were performed in triplicate with a total reaction volume of 10 μl including 300 nM each forward and reverse primers and 75 ng template RNA. Data Analysis was performed by the StepOne Software (Applied Biosystems) using the Relative Quantitation/Comparative CT (ΔΔCT) setting. Data was normalized to the endogenous control actin with expression on sucrose as the reference sample.

cbh-1 = assay: mRNA sequencing (RNA-Seq), transcript abundance of cbh-1; details: Δ3βG; 4 hours after transfer to 0.2% cellobiose
Method: Conidia from strains were inoculated at an OD595 equal to 0.05 in 50 ml Vogel's salts (45) with 2% w/v sucrose in a 250 ml Erlenmeyer flask and grown under constant light at 200 rpm for 16 hours. Biomass was then spun at 4200 rpm for 10 minutes and washed in Vogel's salts twice to remove any excess sucrose. Biomass was then added to a new flask containing 50 ml Vogel's salts supplemented with 1% w/v sucrose, 0.2% w/v cellobiose (Sigma) or 1% w/v Avicel® PH 101 (Sigma). Cultures were induced for 4 hrs under constant light at 200 rpm. The culture biomass was then harvested by filtration over a Whatman glass microfiber filter (GF/F) on a Buchner funnel and washed with 50 ml Vogel's salts. The biomass was flash frozen in liquid nitrogen and stored at −80° C. Three independent biological duplicates (flasks) were evaluated for each time point.
Total RNA from frozen samples was isolated using Zirconia/Silica beads (0.5 mm diameter; Biospec) and a Mini-Beadbeater-96 (Biospec) with 1 mL TRIzol reagent (Invitrogen) according to the manufacturer's instructions. […]
mRNA sequencing was performed using an Illumina kit (RS-100-0801) with isolated RNA. The final cDNA library was quantified by an Agilent bioanalyzer 2000 and sequenced using an Illumina Genome Analyzer-II using standard Illumina operating procedures. […]

cbh-2 / gh6-2 (NCU09680) = assay: Quantitative RT-PCR of cbh-2/gh6-2 expression after 4 h induction with a carbon source
Method: Strains were inoculated at an OD595 equal to 0.05 in 50 ml Vogel's salts with 2% (wt/vol) sucrose in a 250 ml Erlenmeyer flask and grown under constant light at 200 rpm for 16 hours. The biomass was then spun at 4000 rpm for 10 minutes and washed in Vogel's twice to remove any excess sucrose. The biomass was then added to a new 50 ml culture with 2% (wt/vol) sucrose, cellobiose (Sigma) or Avicel® PH 101 (Avicel®). Cultures were induced for 4 hours under constant light at 200 rpm. The culture biomass was then harvested by filtration over a Whatman glass microfiber filter (GF/F) on a Buchner funnel and washed with 50 ml Vogel's, biomass was flash frozen in liquid Nitrogen and stored at −80° C.
as §1, with “(0.2 g, 0.5” for “(0.5”, “to” for “to the”, “Total” for “The total”, “RNA” for “RNA concentration and”
Quantitative RT-PCR was performed using the EXPRESS One-Step SYBR GreenER Kit (Invitrogen) and the StepOnePlus Real-Time PCR System (Applied Biosystems). Reactions were performed in triplicate with a total reaction volume of 10 ul including 300 nM each forward and reverse primers and 75 ng template RNA. Data Analysis was performed by the StepOne Software (Applied Biosystems) using Relative Quantitation/Comparative CT (ΔΔCT). […]
Conidia from strains were inoculated at an OD595 equal to 0.05 in 50 ml Vogel's salts (45) with 2% w/v sucrose in a 250 ml Erlenmeyer flask and grown under constant light at 200 rpm for 16 hours. […] Three independent biological duplicates (flasks) were evaluated for each time point. […]
Quantitative RT-PCR was performed using the EXPRESS One-Step SYBR GreenER Kit (Invitrogen) and the StepOnePlus Real-Time PCR System (Applied Biosystems). […] Data Analysis was performed by the StepOne Software (Applied Biosystems) using the Relative Quantitation/Comparative CT (ΔΔCT) setting. […]

O=C[C@H](O)[C@@H](O)[C@H](O[C@@H]1O[C@H](CO)[C@@H](O)[C@H](O)[C@H]1O)[C@H](O)CO [cellobiose]
induction of cbh-1, gh6-2, or gh5-1 expression ([1]; individual β-glucosidase deletion strains (Δgh1-1, Δgh3-3 or Δgh3-4), 4 hr induction, 0.2%): did not show a significant induction | induction of lignocellulolytic genes ([1]; wild-type N. crassa (WT) grown on the substance as sole carbon source): not induced | cellulase gene induction ([1]; Δgh1-1Δgh3-3 double mutant, 4 hr induction, 0.2%): showed some cellulase gene induction | FPKM for cbh-1 (cbh-1): 130,865 FPKM | cbh-2 relative expression compared to sucrose (cbh-2 / gh6-2 (NCU09680); WT strain, 2% carbon source, 4 h induction): no change | cbh-2 increase in relative expression over expression on sucrose (cbh-2 / gh6-2 (NCU09680); triple β-glucosidase mutant, 2% carbon source, 4 h induction): 2,100 fold | induction of gh6-2 (cbh-2 / gh6-2 (NCU09680); Δcre-1 strain, shifted from sucrose to 0.2% cellobiose for 4 hrs): 85 fold
